Results on three molecules are retold here after publication PMC10689823, “Discovery of a Drug-like, Natural Product-Inspired DCAF11 Ligand Chemotype” (Nature Communications, 2023).

What all share (format): binding
The target of experiment [1] is T1, DCAF11 (Homo sapiens, UniProt Q8TEB1). Briefly: Affinity-based enrichment (biotin-streptavidin pulldown) in Hep G2 cells overexpressing HA-DCAF11. Details: host or cells: Hep G2. To be noted: Hep G2 cells overexpressing HA-DCAF11; 10 μM probe, 2 h. The procedure: Hep G2 cells (1 × 10^6 cells/well) were seeded in 6-well plates and incubated for 24 h. On the next day, the cells were transfected with 1 µg pCMV3-N-HA-DCAF11 plasmid (Sino Biological, HG16257-NY) or 1 µg empty vector (pcDNA3.1(+), Thermo Fisher, V79020) and 2.5 µL FuGENE® HD transfection reagent (Promega, E2311) per well. The cells were incubated for 48 h prior to treatment with 100 μM compound 2 for 1 h. […] The cells were washed with ice-cold PBS, then lysed in lysis buffer (150 mM sodium chloride, 1% NP-40, 50 mM TRIS-HCl, pH 8.0 with complete protease inhibitor cocktail (Roche, 11836170001)) for 30 min on ice. After centrifugation at 16,000 x g, the supernatant was transferred into a new tube and the protein concentration was determined using the DC protein assay (BIO-RAD, 5000116).
The supernatant was discarded and 1 mg of lysate in 500 µL lysis buffer was added to the beads and incubated for 1 h at room temperature with overhead rotation. The beads were washed twice with 500 µL washing buffer (50 mM PIPES (pH 7.4), 50 mM NaCl, 75 mM MgCl2, 5 mM EGTA, 0.1% NP-40, 0.1% Triton X-100, 0.1% Tween20) and twice with PBS for 10 min each at room temperature with overhead rotation. Enriched proteins were eluted by boiling of the beads at 95 °C for 5 min in 20 µL of a supersaturated (25 mM) biotin solution and visualized by Western Blotting as described above.

For experiment [2], the target named is T1, DCAF11. Kind of experiment: In-gel fluorescence labelling of purified DCAF11. To be noted: 40 min; in-gel fluorescence. As to the method: Purified DCAF11 protein (1 μg, Origene, TP760719) was diluted in PBS buffer that is mixed with compound 2 or BODIPY derivative 18 at the indicated concentration at room temperature. Samples were diluted with 5 × SDS sample loading buffer and heated at 95 °C for 5 min. Proteins were separated using SDS-PAGE and were visualized using the ChemiDoc MP Imaging System (BIO-RAD) at 488 nm and the results were analyzed by Image Lab (BIORAD).

The target of experiment [3] is T2, LC3B (Homo sapiens, UniProt Q9GZQ8). Briefly: Fluorescence polarization with LC3B protein. Details: His (N); made in house; host or cells: E. coli BL21DE3 RIL. Conditions: for Fluorescence Polarization (mP): probe 18 at 100 µM. As to the method: The LC3B open reading frame was cloned into pOPINE-NHis by the Dortmund protein Facility (DPF). pOPINE-NHis-LC3B was transformed into BL21DE3 RIL K+. Cells were cultured in TB medium supplemented with ampicillin and chloramphenicol (Amp/Cam), 1% glucose and 2 mM MgSO4. A 10 L culture was incubated in TB/Amp with 0.01 % lactose monohydrate, 2 mM MgSO4 for 4 h at 37 °C followed by overnight incubation at 20 °C. Cells were lysed using sonication in a buffer containing 50 mM HEPES (pH 7.5), 300 mM NaCl, 10 mM imidazole, 1 mM 2-mercaptoethanol, 1 mM PMSF and DNase. Upon centrifugation, the supernatant was applied onto Ni NTA column. The column was washed using 50 mM HEPES (pH 7.5), 300 mM NaCl, 30 mM imidazole, 1 mM 2-mercaptoethanol. The protein was eluted in 50 mM HEPES pH 7.5, 300 mM NaCl, 300 mM imidazole, 1 mM 2-mercaptoethanol prior to size exclusion chromatography using 26/60 G75 column and 25 mM HEPES pH 7.5, 150 mM NaCl and1 mM DTE.
The assay was performed in black, 384 well plates with a total volume of 20 µl per well using a buffer solution comprising 50 mM Tris, 300 mM NaCl and 1 mM 2-mercaptoethanol, pH 7.5. The BODIPY labelled compound 18 was tested at a final concentration of 100 µM, and the LC3B protein was titrated in two-fold dilution series. The plates were incubated at 20°C for 30 min, and fluorescence polarization was measured using a Tecan Spark plate reader at ex/em 502 / 511 nm.
(In general: Fluorescence polarisation rises when a labelled molecule tumbles more slowly, as on binding a larger partner.)

The target of experiment [4] is T2, LC3B. Kind of experiment: Thermal shift assay with LC3B. Conditions: 15 µM LC3B; 60 µM compound; Glo-Melt dye. The procedure: For thermal shift analysis, 15 µM of human LC3B was dispensed into 384-well plates (Hard-Shell 384-well 480 PCR plates, BioRAD #HSR4805) in buffer (50 mM Tris/HCl pH 7.4, 100 mM NaCl, 1 mM GSH and 0.02% CHAPS) with a Certus Flex liquid dispenser (Gyger). 60 µM compounds in DMSO (n4 or DMSO (0.6%) as control were added with an Echo 520 acoustic liquid handler (Labcyte). Glo-Melt dye was added (final concentration: 1/100), plates sealed with Lightcycler 480 Sealing Foils (Roche, #04 729 757 001) and mixed by short centrifugation (1 min, 60 g and room temeprature). A Lightcycler 480 II (Roche) was used for thermal shift curves with a temperature gradient from 20 to 95 °C according to the manufacturer´s protocol. Protein melting curves were analyzed, and the difference in meting temperature (ΔTm) was calculated with LightCycler Thermal Shift Analysis software (ROCHE) and visualized by Graphpad Prism (Version 9.5.1).

Several values for one entry are separate records, joined by “and”; a condition that tells them apart may be missing. Equal values may be shown once.

T1 sequence (Q8TEB1 whole entry): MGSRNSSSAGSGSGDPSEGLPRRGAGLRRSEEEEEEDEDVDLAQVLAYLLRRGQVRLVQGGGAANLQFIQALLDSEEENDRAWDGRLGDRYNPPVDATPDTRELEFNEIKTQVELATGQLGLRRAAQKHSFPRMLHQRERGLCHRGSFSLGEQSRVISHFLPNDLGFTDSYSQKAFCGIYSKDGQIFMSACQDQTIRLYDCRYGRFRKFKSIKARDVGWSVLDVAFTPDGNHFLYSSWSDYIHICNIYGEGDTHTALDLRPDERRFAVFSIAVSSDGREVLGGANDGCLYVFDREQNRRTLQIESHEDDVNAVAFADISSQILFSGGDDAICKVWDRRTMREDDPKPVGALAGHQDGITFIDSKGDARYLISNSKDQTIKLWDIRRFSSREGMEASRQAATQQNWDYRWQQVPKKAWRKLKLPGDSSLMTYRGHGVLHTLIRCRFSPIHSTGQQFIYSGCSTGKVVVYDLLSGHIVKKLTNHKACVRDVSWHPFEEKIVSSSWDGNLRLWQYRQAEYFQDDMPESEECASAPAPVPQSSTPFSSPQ

In the case of `O=C(CCCCC1SC[C@@H]2NC(=O)N[C@H]12)NCCOc1c(Br)cc(/C=C2\C(=O)Nc3ccc(Br)cc32)cc1Br` (stereo partly shown) [Compound 14], the “enrichment of DCAF11 by pulldown” value at DCAF11 [1] was “enriched DCAF11 protein”.

For the molecule `Cc1cc(C)n2c1C=C1C=CC(CCC(=O)NCCOCCOCCOCCOc3c(Br)cc(C=C4C(=O)Nc5ccc(Br)cc54)cc3Br)=[N+]1[B-]2(F)F` [Compound 18], the “binding (fluorescence labelling) to purified DCAF11” value on DCAF11 [2] is given as “binds to purified DCAF11 in a concentration-dependent manner”. Moreover, the “binding to LC3B in fluorescence polarization” value at LC3B [3] (18 at 100 µM, LC3B titrated) is “failed to bind”. The “Fluorescence Polarization (mP)” value on LC3B [3] (LC3B protein concentration 0.00610352 µM) is 132 mP and 130 mP and 100 mP and 97 mP; on LC3B [3] (LC3B protein concentration 0.012207 µM), 127 mP and 128 mP and 102 mP and 96 mP; at LC3B [3] (LC3B protein concentration 0.0244141 µM) it was 129 mP and 121 mP and 108 mP and 110 mP; on LC3B [3] (LC3B protein concentration 0.0488281 µM) it was 132 mP and 133 mP and 107 mP and 105 mP; on LC3B [3] (LC3B protein concentration 0.0976562 µM) it was 127 mP and 130 mP and 115 mP and 111 mP; at LC3B [3] (LC3B protein concentration 0.195312 µM), 131 mP and 136 mP and 106 mP and 103 mP. The “Fluorescence Polarization (mP)” value on LC3B [3] (LC3B protein concentration 0.390625 µM) was 133 mP and 127 mP and 116 mP and 109 mP; at LC3B [3] (LC3B protein concentration 0.78125 µM), 135 mP and 112 mP and 108 mP; on LC3B [3] (LC3B protein concentration 1.5625 µM) it was 138 mP and 134 mP and 112 mP and 113 mP; at LC3B [3] (LC3B protein concentration 3.125 µM) it was 132 mP and 138 mP and 112 mP and 108 mP; on LC3B [3] (LC3B protein concentration 6.25 µM), 132 mP and 131 mP and 113 mP and 111 mP; on LC3B [3] (LC3B protein concentration 12.5 µM), 108 mP and 101 mP and 138 mP and 135 mP. Further, the “Fluorescence Polarization (mP)” value at LC3B [3] (LC3B protein concentration 25 µM) was 110 mP and 132 mP and 130 mP; at LC3B [3] (LC3B protein concentration 50 µM) it was 107 mP and 101 mP and 132 mP and 133 mP; on LC3B [3] (LC3B protein concentration 100 µM), 102 mP and 138 mP and 134 mP.

On to DC-LC3in-D5 [reference compound], for which the “change of melting temperature of LC3B (ΔTm)” value at LC3B [4] worked out at 13 °C.
